The term EC50 denotes the midpoint of the concentration-response curve.

EC50 and Activity data for 10 compounds are collected here from ChEMBL document CHEMBL3351766, “Asymmetric binding to NS5A by daclatasvir (BMS-790052) and analogs suggests two novel modes of HCV inhibition” (J Med Chem, 2014).

The test system of assay [1] is Hepatitis C virus. Description: Antiviral activity against wild type HCV genotype 1b assessed as replication level. Type of assay: functional, Hepacivirus hominis. The following applies: for EC50: Hepatitis C virus, genotype 1b.
The test system of assay [2] is Hepatitis C virus. Description: Antiviral activity against HCV genotype 1b expressing NS5A L31M mutant assessed as replication level. Format: functional, Hepacivirus hominis.
The test system of assay [3] is Hepatitis C virus. Description: Antiviral activity against HCV genotype 1b expressing NS5A L31V mutant assessed as replication level. Type of assay: functional, Hepacivirus hominis.
The subject of assay [4] is Hepatitis C virus. Description: Antiviral activity against HCV genotype 1b expressing NS5A Y93H mutant assessed as replication level. Format: functional, Hepacivirus hominis. The settings on record: for EC50: Hepatitis C virus, genotype 1b.
In assay [5] the test system is Hepatitis C virus. Description: Antiviral activity against HCV genotype 1b expressing NS5A L31M/Y93H mutant assessed as replication level. Format: functional, Hepacivirus hominis.
Assay [6] concerns Hepatitis C virus. Description: Antiviral activity against HCV genotype 1b expressing NS5A L31V/Y93H mutant assessed as replication level. Type of assay: functional, Hepacivirus hominis.
In assay [7] the test system is Hepatitis C virus. Description: Antiviral activity against HCV genotype 1b expressing NS5A L31F mutant assessed as replication level.

Where only a bound is given, the exact number is not on record here.

On to `COC(=O)N[C@H](C(=O)N1C[C@H](N=[N+]=[N-])C[C@H]1c1ncc(-c2ccc(-c3ccc(-c4cnc([C@@H]5C[C@@H](N=[N+]=[N-])CN5C(=O)[C@@H](NC(=O)OC)C(C)C)[nH]4)cc3)cc2)[nH]1)C(C)C`, for which, in the assay on Hepatitis C virus [1], the EC50 was found to be 0.0184 nM.
Still for that read-out and setting: next, `COC(=O)N[C@H](C(=O)N1CCC[C@H]1c1nc(Br)c(-c2ccc(Oc3ccc(-c4[nH]c([C@@H]5CCCN5C(=O)[C@@H](NC(=O)OC)C(C)C)nc4Br)cc3)cc2)[nH]1)C(C)C`: 0.05 nM; `COC(=O)N[C@H](C(=O)N1C[C@H](n2cc(C(=O)OC)nn2)C[C@H]1c1ncc(-c2ccc(-c3ccc(-c4cnc([C@@H]5C[C@@H](n6cc(C(=O)OC)nn6)CN5C(=O)[C@@H](NC(=O)OC)C(C)C)[nH]4)cc3)cc2)[nH]1)C(C)C`: 0.0118 nM; `COC(=O)N[C@H](C(=O)N1C[C@@H](n2cc(C(=O)OC)nn2)C[C@H]1c1ncc(-c2ccc(-c3ccc(-c4cnc([C@@H]5C[C@H](n6cc(C(=O)OC)nn6)CN5C(=O)[C@@H](NC(=O)OC)C(C)C)[nH]4)cc3)cc2)[nH]1)C(C)C`: > 10 nM.
In the case of `COC(=O)N[C@H](C(=O)N1CCC[C@H]1c1ncc(-c2ccc(-c3ccc(-c4cnc([C@@H]5CCCN5C(=O)[C@@H](NC(=O)OC)C(C)C)[nH]4)cc3)cc2)[nH]1)C(C)C` [DACLATASVIR], the Activity in the assay on Hepatitis C virus [1] was 100%; with Hepatitis C virus [2] it was 99%; with Hepatitis C virus [3] it was 158%; in the assay on Hepatitis C virus [4], 27%; in the assay on Hepatitis C virus [5], 70%; in the assay on Hepatitis C virus [6] it was 50%. For the same compound, the EC50 came to 0.0026 nM in the assay on Hepatitis C virus [1]; 0.0084 nM in the assay on Hepatitis C virus [2] (Hepatitis C virus, genotype 1b); 0.0717 nM in the assay with Hepatitis C virus [3] (Hepatitis C virus, genotype 1b); 0.0623 nM in the assay on Hepatitis C virus [4]; 18.3 nM in the assay with Hepatitis C virus [5] (Hepatitis C virus, genotype 1b); 38 nM in the assay with Hepatitis C virus [6] (Hepatitis C virus, genotype 1b).
On to `COC(=O)N[C@H](C(=O)N1C[C@@H](N=[N+]=[N-])C[C@H]1c1ncc(-c2ccc(-c3ccc(-c4cnc([C@@H]5C[C@H](N=[N+]=[N-])CN5C(=O)[C@@H](NC(=O)OC)C(C)C)[nH]4)cc3)cc2)[nH]1)C(C)C`, for which the EC50 with Hepatitis C virus [1] was 0.023 nM.
Consider `COC(=O)N[C@H](C(=O)N1CCC[C@H]1c1nc(Br)c(-c2ccc(N=[N+]=[N-])cc2)[nH]1)C(C)C`, for which the EC50 with Hepatitis C virus [7] was determined as 0.7 nM.
`COC(=O)N[C@H](C(=O)N1CCC[C@H]1c1ncc(-c2ccc(Oc3ccc(-c4cnc([C@@H]5CCCN5C(=O)[C@@H](NC(=O)OC)C(C)C)[nH]4)cc3)cc2)[nH]1)C(C)C`: the EC50 with Hepatitis C virus [1] was found to be 30 nM.
For `COC(=O)N[C@H](C(=O)N1CCC[C@H]1c1ncc(-c2ccc(N=[N+]=[N-])cc2)[nH]1)C(C)C`, the EC50 in the assay with Hepatitis C virus [4] is 8 nM.
As to `COC(=O)N[C@H](C(=O)N1CCC[C@H]1c1ncc(-c2ccccc2)[nH]1)C(C)C`, the EC50 in the assay with Hepatitis C virus [1] was > 1000 nM.
